Earlier results as cited in patent US20160311826A1, “SGC STIMULATORS” (IRONWOOD PHARMACEUTICALS, INC., priority 2013, published 2016).

Legend:
[1] = system: obese mice; details: cited from earlier work
[2] = system: NO-deficient rats; details: cited from earlier work

SMILES	overactive bladder [1]	bladder dysfunction [2]
O=C(O)CCCCN(CCc1cc(F)ccc1OCc1ccc(-c2ccc(C(F)(F)F)cc2)cc1)Cc1ccc(C(=O)O)cc1 [BAY 60-2770]	ameliorates overactive bladder in obese mice	–
Nc1nc(-c2nn(Cc3ccccc3F)c3ncccc23)ncc1C1CC1 [BAY-2272]	–	protective effects
